According to ChEMBL document CHEMBL1201862, “PubChem BioAssay data set” (2004):
Several values for one entry are separate records, joined by “and”; a condition that tells them apart may be missing. Equal values may be shown once. Activity calls are given as the source filed them.

Assays:
[1] = target: Cytochrome P450 2C9 (Homo sapiens, UniProt P11712)
[2] = target: Cytochrome P450 2C19 (Homo sapiens, UniProt P33261); experiment: Cytochrome panel assay with activity outcomes. Panel member name: p450-cyp2c19 Compounds with AC50 equal or less than 10 uM are considered active; type: functional; conditions: read-out: AC50
Cytochrome P450 2C19, sequence (P33261 whole entry): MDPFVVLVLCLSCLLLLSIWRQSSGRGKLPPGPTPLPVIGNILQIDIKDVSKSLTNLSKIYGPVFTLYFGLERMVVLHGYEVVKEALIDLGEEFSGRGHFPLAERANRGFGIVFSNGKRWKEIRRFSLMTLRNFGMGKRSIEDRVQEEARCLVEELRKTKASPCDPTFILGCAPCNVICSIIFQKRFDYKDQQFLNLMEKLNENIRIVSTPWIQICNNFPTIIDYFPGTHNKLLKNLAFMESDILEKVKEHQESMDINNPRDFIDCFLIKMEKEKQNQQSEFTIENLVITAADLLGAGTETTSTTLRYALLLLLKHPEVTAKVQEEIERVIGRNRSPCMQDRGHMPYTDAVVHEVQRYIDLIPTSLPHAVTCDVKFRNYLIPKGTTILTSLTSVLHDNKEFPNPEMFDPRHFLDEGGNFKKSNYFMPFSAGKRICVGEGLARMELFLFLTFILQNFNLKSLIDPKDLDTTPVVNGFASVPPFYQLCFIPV

[3] = target: Cytochrome P450 3A4 (Homo sapiens, UniProt P08684);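 note: CYP3A4 tested as one member of a cytochrome P450 panel screen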
Cytochrome P450 3A4, sequence (P08684 whole entry): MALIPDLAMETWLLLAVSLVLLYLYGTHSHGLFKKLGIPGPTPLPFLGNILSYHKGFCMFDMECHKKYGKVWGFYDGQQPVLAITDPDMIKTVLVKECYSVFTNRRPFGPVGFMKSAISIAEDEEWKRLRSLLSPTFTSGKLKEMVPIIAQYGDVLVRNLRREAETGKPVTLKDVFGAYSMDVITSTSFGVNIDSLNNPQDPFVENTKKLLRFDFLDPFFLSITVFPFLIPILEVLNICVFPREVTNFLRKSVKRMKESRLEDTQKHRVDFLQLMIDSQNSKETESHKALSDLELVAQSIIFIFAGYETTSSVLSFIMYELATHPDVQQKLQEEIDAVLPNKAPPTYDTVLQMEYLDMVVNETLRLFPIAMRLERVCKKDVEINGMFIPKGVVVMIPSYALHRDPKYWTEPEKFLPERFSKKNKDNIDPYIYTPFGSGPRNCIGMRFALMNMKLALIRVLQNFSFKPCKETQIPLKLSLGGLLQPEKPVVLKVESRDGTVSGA

[4] = target: T1, Cytochrome P450 1A2 (Homo sapiens, UniProt P05177);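 note: PubChem cytochrome P450 panel assay, CYP1A2 panel member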
T1 sequence (P05177 whole entry): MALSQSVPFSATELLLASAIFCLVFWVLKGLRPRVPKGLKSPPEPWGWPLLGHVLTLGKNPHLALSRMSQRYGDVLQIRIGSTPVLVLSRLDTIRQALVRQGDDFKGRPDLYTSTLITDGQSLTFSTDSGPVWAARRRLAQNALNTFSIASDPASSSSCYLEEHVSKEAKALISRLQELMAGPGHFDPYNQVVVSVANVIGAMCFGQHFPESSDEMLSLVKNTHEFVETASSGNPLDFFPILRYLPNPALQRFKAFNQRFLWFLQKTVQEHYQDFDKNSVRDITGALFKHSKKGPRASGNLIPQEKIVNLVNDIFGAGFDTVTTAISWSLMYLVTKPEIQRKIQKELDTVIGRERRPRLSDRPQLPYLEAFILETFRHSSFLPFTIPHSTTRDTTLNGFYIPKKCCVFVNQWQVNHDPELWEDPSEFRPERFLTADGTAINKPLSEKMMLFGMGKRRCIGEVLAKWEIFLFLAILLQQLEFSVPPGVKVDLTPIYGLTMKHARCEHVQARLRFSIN

[5] = Luminescence Cell-Based Dose Retest to Confirm Inhibitors of Cancer Stem Cells. [Related pubchem assays (depositor defined):AID2717, AID2721]; type: functional; conditions: Homo sapiens
[6] = target: T2, Rac GTPase-activating protein 1 (Homo sapiens, UniProt Q9H0H5); experiment: MgcRacGAP GTPase-activating activity inhibitors, confirmation, biochemical, ADP Hunter fluorescence, primary and confirmatory (AID 624330); type: functional
T2 sequence (Q9H0H5 whole entry): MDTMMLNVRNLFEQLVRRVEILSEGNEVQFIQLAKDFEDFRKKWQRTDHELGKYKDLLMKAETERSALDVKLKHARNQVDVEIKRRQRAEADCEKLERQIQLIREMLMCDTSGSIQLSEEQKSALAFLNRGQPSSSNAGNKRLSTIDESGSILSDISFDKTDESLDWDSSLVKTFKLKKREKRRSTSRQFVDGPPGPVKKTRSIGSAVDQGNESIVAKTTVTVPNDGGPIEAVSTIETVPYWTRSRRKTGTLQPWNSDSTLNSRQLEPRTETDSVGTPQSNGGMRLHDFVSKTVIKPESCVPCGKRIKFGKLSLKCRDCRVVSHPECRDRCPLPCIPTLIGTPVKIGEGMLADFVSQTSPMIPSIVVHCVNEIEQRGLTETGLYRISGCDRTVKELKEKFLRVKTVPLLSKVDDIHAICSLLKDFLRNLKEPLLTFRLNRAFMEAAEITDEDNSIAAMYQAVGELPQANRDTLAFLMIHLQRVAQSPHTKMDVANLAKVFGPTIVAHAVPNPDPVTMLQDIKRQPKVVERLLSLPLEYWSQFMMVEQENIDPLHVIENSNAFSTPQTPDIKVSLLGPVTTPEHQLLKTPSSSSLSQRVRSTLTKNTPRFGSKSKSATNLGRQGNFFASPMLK

[7] = target: T3, Protein RecA (Mycobacterium tuberculosis, UniProt P9WHJ3); experiment: Fluorescence Cell-Free Homogeneous Dose Retest to Identify Inhibitors of RecA-Intein Splicing Activity. [Related pubchem assays (depositor defined):AID2097, AID2223, AID489010, AID492950]; type: functional
T3 sequence (P9WHJ3 whole entry): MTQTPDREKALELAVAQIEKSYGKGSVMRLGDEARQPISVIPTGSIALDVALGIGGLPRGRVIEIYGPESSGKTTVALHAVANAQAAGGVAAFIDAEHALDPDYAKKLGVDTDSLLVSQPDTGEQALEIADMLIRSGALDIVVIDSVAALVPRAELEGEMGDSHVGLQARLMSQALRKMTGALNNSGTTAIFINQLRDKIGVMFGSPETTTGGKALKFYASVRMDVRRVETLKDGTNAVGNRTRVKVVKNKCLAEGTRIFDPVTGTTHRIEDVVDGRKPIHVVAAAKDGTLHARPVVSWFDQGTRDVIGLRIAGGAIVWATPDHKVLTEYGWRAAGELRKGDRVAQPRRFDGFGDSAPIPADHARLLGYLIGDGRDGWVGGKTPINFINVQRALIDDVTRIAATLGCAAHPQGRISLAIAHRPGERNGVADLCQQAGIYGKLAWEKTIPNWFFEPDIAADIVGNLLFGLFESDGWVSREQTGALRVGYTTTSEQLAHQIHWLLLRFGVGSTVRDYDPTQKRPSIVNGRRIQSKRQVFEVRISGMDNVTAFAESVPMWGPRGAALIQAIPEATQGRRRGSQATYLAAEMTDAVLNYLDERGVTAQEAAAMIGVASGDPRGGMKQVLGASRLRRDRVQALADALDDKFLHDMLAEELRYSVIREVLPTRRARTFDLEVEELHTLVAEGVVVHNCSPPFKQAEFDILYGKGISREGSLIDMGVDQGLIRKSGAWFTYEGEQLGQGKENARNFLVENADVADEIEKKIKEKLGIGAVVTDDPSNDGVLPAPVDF

[8] = target: T4, Replicative DNA helicase DnaB (Mycobacterium tuberculosis, UniProt P9WMR3); experiment: DnaB intein splicing inhibitors, dose response, biochemical, cell-free fluorescence (AID 449749); type: functional
T4 sequence (P9WMR3 whole entry): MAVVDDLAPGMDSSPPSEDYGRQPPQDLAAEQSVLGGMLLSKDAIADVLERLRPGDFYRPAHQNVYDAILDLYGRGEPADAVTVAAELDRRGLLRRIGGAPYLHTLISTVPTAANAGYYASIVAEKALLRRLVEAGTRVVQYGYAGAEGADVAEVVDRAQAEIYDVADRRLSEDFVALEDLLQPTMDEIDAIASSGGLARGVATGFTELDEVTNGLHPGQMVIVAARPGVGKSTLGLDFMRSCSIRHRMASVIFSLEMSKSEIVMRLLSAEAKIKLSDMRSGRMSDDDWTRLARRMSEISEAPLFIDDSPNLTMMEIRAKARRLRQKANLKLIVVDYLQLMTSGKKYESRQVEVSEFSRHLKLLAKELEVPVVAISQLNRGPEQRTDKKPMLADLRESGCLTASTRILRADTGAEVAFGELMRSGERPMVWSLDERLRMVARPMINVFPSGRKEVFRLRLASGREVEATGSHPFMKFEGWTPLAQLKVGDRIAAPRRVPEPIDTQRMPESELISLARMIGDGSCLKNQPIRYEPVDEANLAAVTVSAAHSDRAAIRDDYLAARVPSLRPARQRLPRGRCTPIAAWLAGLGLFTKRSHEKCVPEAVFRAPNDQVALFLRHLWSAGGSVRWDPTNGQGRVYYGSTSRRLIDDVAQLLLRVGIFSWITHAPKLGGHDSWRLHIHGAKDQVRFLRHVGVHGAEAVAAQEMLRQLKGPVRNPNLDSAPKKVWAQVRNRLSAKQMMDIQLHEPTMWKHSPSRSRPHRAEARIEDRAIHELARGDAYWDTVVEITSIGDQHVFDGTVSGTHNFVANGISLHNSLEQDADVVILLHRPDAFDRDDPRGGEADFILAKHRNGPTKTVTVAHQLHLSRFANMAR

[9] = C. albicans growth with fluconazole, confirmation, fluorescence, retest (AID 2467); type: functional, cell-based
[10] = NIH-3T3 fibroblast cytotoxicity, dose response, cytotoxicity control, cell-based, fluorescence, Alamar Blue, secondary assay (AID 2327); type: functional;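 note: NIH-3T3 mouse fibroblasts cultured with fluconazole at 8 µg/mL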
[11] = control 3'UTR Renilla luciferase suppression, dose response, counter-screen for Shn3 inhibitor project, cell-based, Clone20-Shn3RL, cherry-picked (AID 624133); type: functional
[12] = Shn3 3'UTR reporter inhibitors, dose response, cell-based, Clone20 osteoblasts, firefly luciferase, cherry-picked (AID 624132); type: functional;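 note: firefly luciferase luminescence from reporter carrying the Shn3 3'UTR in osteoblasts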
[13] = HepG2 cell cytotoxicity, dose response, cytotoxicity control for Shn3 inhibitor project, CellTiter-Glo, cherry-picked (AID 624134); type: functional, cell-based

Cytochrome P450 2C9, sequence (P11712 whole entry): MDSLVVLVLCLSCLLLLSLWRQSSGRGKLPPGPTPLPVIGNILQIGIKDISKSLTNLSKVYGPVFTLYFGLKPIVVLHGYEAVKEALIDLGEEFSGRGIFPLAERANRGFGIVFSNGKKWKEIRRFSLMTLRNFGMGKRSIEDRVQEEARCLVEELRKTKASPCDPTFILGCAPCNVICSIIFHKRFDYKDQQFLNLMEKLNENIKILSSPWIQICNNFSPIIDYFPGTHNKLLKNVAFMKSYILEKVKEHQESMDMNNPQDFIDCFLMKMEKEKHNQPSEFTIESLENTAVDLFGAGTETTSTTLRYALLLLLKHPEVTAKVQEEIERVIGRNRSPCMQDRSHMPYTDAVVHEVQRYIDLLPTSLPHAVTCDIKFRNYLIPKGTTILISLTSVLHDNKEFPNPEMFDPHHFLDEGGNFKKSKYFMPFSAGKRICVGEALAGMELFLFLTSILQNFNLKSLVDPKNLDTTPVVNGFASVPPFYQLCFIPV

Compound: O=C(NNC(=O)c1ccccc1-n1cccc1)c1ccccc1
- AC50 [1]: 35.5 µM (inconclusive)
- AC50 [2]: 11.2 µM (inconclusive)

Compound: Cc1cc(CSc2ccccc2)ccc1NC(=O)COc1ccccc1
- AC50 [3]: 12.6 µM (inconclusive)
- AC50 [2]: 2.24 µM (inconclusive)
- AC50 [4]: 7.08 µM (inconclusive)

Compound: COc1ccc2sc(-c3ccc(SC)cc3)c(-c3ccc(O)cc3)c2c1
- AC50 [5]: 2.61 µM (active)

Compound: COc1ccc(C(=O)N2CCC3(CCN(Cc4cc(C(F)(F)F)cc(C(F)(F)F)c4)CC3)CC2)cc1
- AC50 [3]: 25.1 µM (inconclusive)

Compound: CC1CCN(S(=O)(=O)c2ccc3c(c2)C(Cl)(Cl)C(=O)N3)CC1
- IC50 [6]: 60.3 µM (active)

Compound: O=c1cc(N2CCOCC2)oc2c(-c3ccccc3)cccc12 [LY-294002]
- AC50 [3]: 10 µM (inconclusive) and 5.01 µM (inconclusive)

Compound: Nc1ccc2[nH]c(Cc3ccccc3)nc2c1
- IC50 [6]: 76.2 µM (active)
- EC50 [7]: 55.9 µM (active)
- AC50 [8]: > 380 µM (inactive)

Compound: C/C(NNc1ccccc1)=C1/C(=O)NC(=O)N(c2ccccc2)C1=O
- AC50 [5]: 1.05 µM (active)

Compound: CC(C)NC(=O)c1ccccc1NC(=O)/C=C/c1ccc([N+](=O)[O-])cc1
- AC50 [3]: 35.5 µM (inconclusive)
- AC50 [1]: 2 µM (inconclusive)

Compound: CC(C)(C)OC(=O)N1CCC(NC(=O)c2[nH]cnc2C(=O)Nc2ccc(Cl)cc2)CC1
- AC50 [5]: 4.79 µM (active)

Compound: COC(=O)C/C=C\[C@@H](C)[C@@H](/C=N\O[C@@H](C)c1cc(-c2c(C)cc(C)cc2C)no1)OC
- AC50 [1]: 3.16 µM (inconclusive)
- AC50 [2]: 2.51 µM (inconclusive)

Compound: O=C(CN1CCN(Cc2ccccc2)CC1)N1CCCc2c1c(=O)oc1ccc(O)cc21
- AC50 [3]: 3.98 µM (inconclusive)
- AC50 [4]: 6.31 µM (inconclusive)

Compound: Cc1cccc(NC(=S)N/N=C(\c2ccccc2)C(C)C)c1
- EC50 [9]: 3.98 µM (active)
- EC50 [10]: > 150 µM (inconclusive)

Compound: COc1ccc(Oc2ncc3nc(CCc4ccccc4)c(=O)n(C4CC4)c3n2)cc1
- AC50 [3]: 5.01 µM (inconclusive)

Compound: CCOC(=O)C1=C(N)Oc2cc(O)ccc2C1c1cccc(Cl)c1 (centres undefined)
- AC50 [5]: 1.77 µM (active)

Compound: COc1ccc(-n2c(=O)c(C)nc3cnc(N4CCNCC4)nc32)cc1
- AC50 [3]: 25.1 µM (inconclusive)

Compound: COC(=O)c1ccccc1NC(=O)CSc1nnc(C(CO)NC(=O)c2ccccc2Cl)n1C (centres undefined)
- AC50 [3]: 22.4 µM (inconclusive)

Compound: COc1cccc(OC)c1C(=O)Nc1cc(C)on1
- AC50 [3]: 20 µM (inconclusive)
- AC50 [2]: 39.8 µM (inconclusive)
- AC50 [4]: 22.4 µM (inconclusive)

Compound: Cc1ccc(NC(=O)C2C(C(=O)O)C3C=CC2C32CC2)cc1 (centres undefined)
- EC50 [9]: > 38 µM (not active)
- EC50 [10]: 46.2 µM (active)

Compound: COc1ccc(CN2CCC(C(N)=O)CC2)cc1OCc1ccccc1
- IC50 [6]: 204 µM (active)

Compound: COc1cc(/C=C(/C#N)c2nc3ccccc3[nH]2)ccc1OCC(=O)Nc1ccccc1C
- AC50 [5]: 0.865 µM (active)

Compound: CC[C@H]1CC[C@H]2[C@@H]3CC=C4C[C@H](OC(C)=O)[C@@H](N)C[C@@]4(C)[C@H]3CC[C@@]12C
- AC50 [3]: 2.51 µM (inconclusive)

Compound: COc1cc(/C=N\NC(=O)CNC(=O)C2COc3ccccc3O2)ccc1O (centres undefined)
- IC50 [6]: 29 µM (active)

Compound: COc1ccccc1CNCC(=O)Nc1ccccc1-n1cccc1
- IC50 [6]: 179 µM (active)

Compound: CN(C)CCCC1Sc2ccccc2Sc2ccccc21 (centres undefined)
- IC50 [6]: 210 µM (active)

Compound: Cc1ccc(C2C(C(=O)c3ccccc3)=C(O)C(=O)N2CCN2CCOCC2)o1 (centres undefined)
- AC50 [3]: 25.1 µM (inconclusive)
- AC50 [1]: 7.08 µM (inconclusive)
- AC50 [2]: 14.1 µM (inconclusive)

Compound: CCOc1ccc(OCC(=O)N(CCC2=CCCCC2)c2c(N)n(Cc3ccccc3)c(=O)[nH]c2=O)cc1
- AC50 [11]: 25.1 µM (active)
- AC50 [5]: 3.6 µM (active)
- AC50 [12]: 8.66 µM (active)
- AC50 [13]: 27.3 µM (active)

Compound: COc1ccc(OCCn2ccnc2C)cc1
- IC50 [6]: 136 µM (active)

Compound: O=C(c1ccncc1)N1CCC2(CC1)CN(c1ccc(-c3ccccc3)cc1)C2
- AC50 [3]: 2.51 µM (inconclusive)
- AC50 [2]: 2.51 µM (inconclusive)

Compound: Clc1ccccc1-c1ccc2ncnc(N3CCNCC3)c2c1
- AC50 [3]: 25.1 µM (inconclusive)
- AC50 [2]: 31.6 µM (inconclusive)

Compound: O=C(c1ccoc1)N1CCC2(CC1)Oc1ccc(F)cc1C(=O)C21CC(c2ccccc2)=NO1 (centres undefined)
- EC50 [9]: 1.18 µM (active)
- EC50 [10]: > 150 µM (inconclusive)

Compound: COCC(=O)N1CCC2(CCCN(c3ccc(-c4ccccc4)cc3)C2)CC1
- AC50 [1]: 20 µM (inconclusive)

Compound: COc1ccc(CCNC(=O)Cn2c(=O)oc3ccccc32)cc1OC
- AC50 [3]: 22.4 µM (inconclusive)
- AC50 [1]: 2.51 µM (inconclusive)
- AC50 [4]: 12.6 µM (inconclusive)

Compound: Cc1nnc(SCC(=O)NCC2CCCCC2)n(N)c1=O
- AC50 [3]: 25.1 µM (inconclusive)
- AC50 [4]: 25.1 µM (inconclusive)

Compound: O=[N+]([O-])c1ccc(N2CCN(CCOCCO)CC2)c([N+](=O)[O-])c1
- IC50 [6]: 204 µM (active)

Compound: COc1ccc(-c2sc3ccccc3c2C#CCCO)cc1
- AC50 [5]: 4.81 µM (active)
